# According to patent EP3338775B1, “USE OF BUTYLIDENEPHTHALIDE” (Everfront Biotech Inc., priority 2015, dated 2017):
# Assays:
# Assay type in all cases: cell-based
# [1] = system: pcDNA 3.0-Axl brain CSCs ^CD133+; assay: Wound healing assay with pcDNA 3.0-Axl brain CSCs CD133+ (Axl overexpression); conditions: BP 0, 25, 50, 62.5, 75 and 100 µg/ml for 24 hours, compared to pcDNA3.0-neo cells, Figure 14C
# Procedure: In this research, to further investigate whether the capability of BP in inhibiting the metastasis of cancer stem cells is related to Axl, brain CSCs ^CD133+ was transfected with pcDNA3.0-Axl plasmid and pcDNA3.0-neo plasmid respectively by using Lipofectmine 2000 transfection reagent. Then, the transfected brain CSCs ^CD133+ and un-transfected brain CSCs ^CD133+ were selected by 200 to 600 µg/ml G418 at the same time to obtain brain CSCs ^CD133+ having pcDNA3.0-Axl plasmid (hereinafter referred to as "pcDNA 3.0-Axl brain CSCs ^CD133+") or brain CSCs ^CD133+ having pcDNA3.0-neo plasmid (hereinafter referred to as "pcDNA3.0-neo brain CSCs ^CD133+"). Both pcDNA 3.0-Axl brain CSCs ^CD133+ and pcDNA3.0-neo brain CSCs ^CD133+ were observed and photographed with the use of a microscope. Then, proteins were extracted from both cells to conduct Western blotting to determine the expressions of Axl protein and β-actin in the BP-treated brain CSCs ^CD133+. Yet another, pcDNA 3.0-Axl brain CSCs ^CD133+ and pcDNA3.0-neo brain CSCs ^CD133+ were treated with different concentrations (0, 25, 50, 62.5, 75 and 100 µg/ml) of BP for 24 hours. At the same time, the phenomenon of pcDNA 3.0-Axl brain CSCs ^CD133+ and pcDNA3.0-neo brain CSCs ^CD133+ migrate to the wound was observed and photographed at 0 and 24 hours during the BP treatment.
# [2] = system: E-cadherin, TGFβ-1 and Slug; assay: Western blotting of EMT-related proteins in brain CSCs CD133+; conditions: BP 0, 12.5, 25, 50, 62.5 and 75 µg/ml for 24 hours, Figure 12
# Procedure: In has been known that at the start of the epithelial-mesenchymal transition (EMT) of cancer stem cells, the expression of E-cadherin would reduce and the aggregation force between cancer stem cells would decrease, so that the cancer stem cells would gain great invasion and migration capacity and depart from the primary tumor, and thus, could metastasize. Brain CSCs ^CD133+ was treated with different concentrations (0, 12.5, 25, 50, 62.5 and 75 µg/ml) of BP for 24 hours, and then, proteins were extracted from the cells to conduct Western blotting to determine the expressions of E-cadherin, TGFβ-1 (with an ability to induce EMT) and Slug (i.e., a member of Snail family transcriptional repressors with a property of promoting the metastasis of cancer cells) proteins in the BP-treated brain CSCs ^CD133+.
# [3] = system: Sox-2, CD133 and CD44 proteins; assay: Western blotting of stemness-maintenance markers in MiaPaCa-2 cells; conditions: BP 0, 12.5, 25 and 50 µg/ml for 24 hours; Figure 6
# Procedure: (§1) It has been known that CD44, CD133, Sox-2 (sex-determining region Y protein (SRY)-related high-mobility group box 2) and Oct4 (octamerbinding transcription factor 4) proteins all are stemness-maintenance markers of cancer stem cells and participate in the regulation of the self-renewal and differentiation of cancer stem cells. Brain CSCs ^CD133+ was treated with different concentrations (0, 12.5, 25, 50, 62.5 and 75 µg/ml) of BP for 24 hours, and then, proteins were extracted from the cells to conduct Western blotting to determine the expressions of CD133, Sox-2 and Oct4 proteins in the BP-treated brain CSCs ^CD133+. In addition, MiaPaCa-2 cell line (i.e., a cell line of pancreatic cancer cells) was treated with different concentrations (0, 12.5, 25, and 50 µg/ml) of BP for 24 hours, and then, proteins were extracted from the cells to conduct Western blotting to determine the expressions of Sox-2, CD133 and CD44 proteins in the BP-treated MiaPaCa-2 cells. […]
# [4] = system: CD133, Sox-2 and Oct4 proteins; assay: Western blotting of stemness-maintenance markers in brain CSCs CD133+; conditions: BP 0, 12.5, 25, 50, 62.5 and 75 µg/ml for 24 hours; Figures 4 and 5
# Procedure: as §1
compound,measurement,setting,value
"CCCC=C1OC(=O)c2ccccc21 [BP, butylidenephthalide]",suppression of the number of pcDNA 3.0-Axl brain CSCs ^CD133+ migrated to the wound,[1],not quite significant
same,expression of E-cadherin protein,[2],significantly increased
same,expressions of TGFβ-1 and Slug proteins,[2],significantly decreased
same,"expressions of Sox-2, CD133 and CD44 proteins in MiaPaCa-2 cells",[3],significantly decreased
same,"expressions of CD133, Sox-2 and Oct4 proteins in brain CSCs ^CD133+",[4],significantly decreased
